Assay results from PubChem BioAssay AID206 (DTP/NCI, 2004).
Values joined by “and” are separate entries in the source; they are usually repeats but may differ in a detail not shown here. Equal values may be shown once. Results filed as inconclusive are left out.

Test system: nude mice, HT29 intrarenal xenograft, tumor weight T/C
Test: NCI In Vivo Anticancer Drug Screen. Data for tumor model HT29;CX-1 Human Adenocarcinoma (MER+) (intrarenal inoculation) in NU/NU Swiss (nude) mice
Conditions: endpoint: mean tumor weight change, higher = larger tumour
In short: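 Mice with transplanted tumors are dosed with compound while controls get vehicle only. Survival or tumor burden is then assessed per group, and the treated value is expressed relative to control.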

In the case of `C1CCC2OCCOCCOC3CCCCC3OCCOCCOC2C1` (centres undefined), the T/C (dose: 37.5 mg/kg/injection, schedule: Q04DX004 (sc), vehicle: Klucel (hydroxypropylcellulose) (HPC)) is reported as 89 % of control and the T/C (dose: 75.0 mg/kg/injection, schedule: Q04DX004 (sc), vehicle: Klucel (hydroxypropylcellulose) (HPC)) is reported as 89 % of control.
In the case of `COc1cccc2c1C(=O)c1c(O)c3c(c(O)c1C2=O)C[C@@](O)(C(C)=O)C[C@@H]3OC1CC(N(Cc2ccccc2)Cc2ccccc2)C(O)C(C)O1` (some centres undefined), the T/C (dose: 25.0 mg/kg/injection, schedule: Q01DX010 (sc), vehicle: water) is reported as 36 % of control, the T/C (dose: 31.25 mg/kg/injection, schedule: Q04DX004 (sc), vehicle: water) is reported as 104 % of control and 212 % of control and the T/C (dose: 62.5 mg/kg/injection, schedule: Q04DX004 (sc), vehicle: water) is reported as 97 % of control and 220 % of control.
In the case of `COC1OC(CO)C(O)C(NC(=O)N(C)N=O)C1O` (centres undefined), the T/C (dose: 225.0 mg/kg/injection, schedule: Q04DX004 (sc), vehicle: suspension in saline) is reported as 104 % of control, the T/C (dose: 450.0 mg/kg/injection, schedule: Q04DX004 (sc), vehicle: suspension in saline) is reported as 95 % of control and the T/C (dose: 900.0 mg/kg/injection, schedule: Q04DX004 (sc), vehicle: suspension in saline) is reported as 33 % of control.
For `CNC(=O)n1c(N)nc(-c2ccccc2)c1-c1ccccc1`, the T/C (dose: 300.0 mg/kg/injection, schedule: Q04DX004 (sc), vehicle: saline with Tween-80) was 92 % of control and the T/C (dose: 600.0 mg/kg/injection, schedule: Q04DX004 (sc), vehicle: saline with Tween-80) was 38 % of control.
For `O=C(Nc1ccc(N=C=S)cc1Cl)c1cc(Cl)cc(Cl)c1O`, the T/C (dose: 25.0 mg/kg/injection, schedule: Q04DX004 (sc), vehicle: Klucel (hydroxypropylcellulose) (HPC)) was 123 % of control, the T/C (dose: 50.0 mg/kg/injection, schedule: Q04DX004 (sc), vehicle: Klucel (hydroxypropylcellulose) (HPC)) was 102 % of control and the T/C (dose: 200.0 mg/kg/injection, schedule: Q04DX004 (sc), vehicle: Klucel (hydroxypropylcellulose) (HPC)) was 56 % of control.
With `C1CN(P2(N3CC3)=NP(N3CC3)(N3CC3)=NP(N3CC3)(N3CC3)=N2)CCO1` (centres undefined) the T/C (dose: 6.25 mg/kg/injection, schedule: Q01DX010 (sc), vehicle: saline) was 50 % of control, the T/C (dose: 12.5 mg/kg/injection, schedule: Q01DX010 (sc), vehicle: saline) was 52 % of control and the T/C (dose: 25.0 mg/kg/injection, schedule: Q01DX010 (sc), vehicle: saline) was 27 % of control.
For `CC(/C=N/N=C(N)N)=N\N=C(N)N`, the T/C (dose: 12.5 mg/kg/injection, schedule: Q01DX010 (sc), vehicle: water) was 67 % of control.
For `CCCCCCCC(=O)OCC(=O)[C@]1(O)Cc2c(O)c3c(c(O)c2[C@@H](OC2CC(N)C(O)C(C)O2)C1)C(=O)c1c(OC)cccc1C3=O` (some centres undefined), the T/C (dose: 2.0 mg/kg/injection, schedule: Q04DX004 (sc), vehicle: suspension in saline) was 90 % of control, the T/C (dose: 4.0 mg/kg/injection, schedule: Q01DX010 (sc), vehicle: suspension in saline) was 222 % of control and the T/C (dose: 4.0 mg/kg/injection, schedule: Q04DX004 (sc), vehicle: suspension in saline) was 50 % of control. The T/C (dose: 5.0 mg/kg/injection, schedule: Q04DX004 (sc), vehicle: suspension in saline) was 106 % of control, the T/C (dose: 8.0 mg/kg/injection, schedule: Q01DX010 (sc), vehicle: suspension in saline) was 67 % of control and the T/C (dose: 8.0 mg/kg/injection, schedule: Q04DX004 (sc), vehicle: suspension in saline) was 42 % of control. The T/C (dose: 10.0 mg/kg/injection, schedule: Q04DX004 (sc), vehicle: suspension in saline) was 29 % of control, the T/C (dose: 16.0 mg/kg/injection, schedule: Q04DX004 (sc), vehicle: suspension in saline) was 33 % of control and the T/C (dose: 20.0 mg/kg/injection, schedule: Q04DX004 (sc), vehicle: suspension in saline) was 42 % of control.
`CC(=O)OC1=NC(C)c2c1cc(OC(C)=O)[nH]c2=O` (centres undefined) was tested, and the T/C (dose: 225.0 mg/kg/injection, schedule: Q04DX004 (sc), vehicle: Klucel (hydroxypropylcellulose) (HPC)) was 108 % of control and the T/C (dose: 900.0 mg/kg/injection, schedule: Q04DX004 (sc), vehicle: Klucel (hydroxypropylcellulose) (HPC)) was 58 % of control.
In the case of `OC(C1CO1)C(O)C1CO1` (centres undefined), the T/C (dose: 0.5 mg/kg/injection, schedule: Q01DX010 (sc), vehicle: saline) is reported as 113 % of control and the T/C (dose: 1.0 mg/kg/injection, schedule: Q01DX010 (sc), vehicle: saline) is reported as 52 % of control.
With `O=C1CN(CN2CCOCC2)C(=O)CN1CN1CCOCC1` the T/C (dose: 25.0 mg/kg/injection, schedule: Q01DX010 (sc), vehicle: suspension in saline) was 53 % of control, the T/C (dose: 50.0 mg/kg/injection, schedule: Q01DX010 (sc), vehicle: suspension in saline) was 122 % of control and the T/C (dose: 100.0 mg/kg/injection, schedule: Q01DX010 (sc), vehicle: suspension in saline) was 114 % of control. The T/C (dose: 200.0 mg/kg/injection, schedule: Q01DX010 (sc), vehicle: suspension in saline) was 69 % of control.
For `O=c1[nH]c(=O)n(C2OC(CO)C(O)C2O)cc1F` (centres undefined), the T/C (dose: 4.69 mg/kg/injection, schedule: Q04DX004 (sc), vehicle: saline) was 34 % of control.
For `N=C(N)SCc1c2ccccc2c(CSC(=N)N)c2ccccc12`, the T/C (dose: 25.0 mg/kg/injection, schedule: Q04DX004 (sc), vehicle: suspension in saline) was 69 % of control, the T/C (dose: 50.0 mg/kg/injection, schedule: Q04DX004 (sc), vehicle: suspension in saline) was 72 % of control and the T/C (dose: 100.0 mg/kg/injection, schedule: Q04DX004 (sc), vehicle: suspension in saline) was 52 % of control. For the same compound, the T/C (dose: 200.0 mg/kg/injection, schedule: Q04DX004 (sc), vehicle: suspension in saline) was 75 % of control.
